Measured values reported in patent US20250213575A1, “8-HETEROCYCLIC-3-(PHENYLSULFONYL)-[1,2,3]TRIAZOLO[1,5A]QUINAZOLIN-5(4H)-ONE DERIVATIVES AS ANTI-BACTERIALS” (priority 2022, published 2025).

Target: AgrA (Staphylococcus aureus, UniProt P0A0I7)
Assay: cell-based
Set-up: species or system S. aureus USA300 strain UAMS-1625
Conditions: for Ratio IC50 (in presence of HSA)/IC50 (in absence of HSA): 40 mg/mL HSA vs without HSA
[1] = IC50 at 40 mg/mL HSA, LB medium supplemented with 40 mg/mL human serum albumin
[2] = IC50 without HSA, LB medium, without HSA

AgrA, sequence (P0A0I7 whole entry): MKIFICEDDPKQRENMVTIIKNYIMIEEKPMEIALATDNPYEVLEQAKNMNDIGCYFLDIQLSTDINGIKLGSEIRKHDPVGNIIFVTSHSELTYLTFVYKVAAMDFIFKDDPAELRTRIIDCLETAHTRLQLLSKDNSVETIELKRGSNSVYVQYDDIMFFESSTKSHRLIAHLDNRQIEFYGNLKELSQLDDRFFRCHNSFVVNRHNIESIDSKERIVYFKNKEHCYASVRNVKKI

| Structure (SMILES) | Ratio IC50 (in presence of HSA)/IC50 (in absence of HSA) | IC50 [1] [µM] | IC50 [2] [µM] |
| --- | --- | --- | --- |
| Cc1ccc(S(=O)(=O)c2n[nH]n3c2nc(=O)c2ccc(N4CCC5(CCNC[C@@H]5O)CC4)cc23)c(C)c1 [Compound 19, 3-(2,4-dimethylbenzenesulfonyl)-8-[(7R)-7-hydroxy-3,9-diazaspiro[5.5]undecan-3-yl]-1H,5H-[1,2,3]triazolo[1,5-a]quinazolin-5-one] | +++ (ratio ≤ 25) | 19.1 to 95.7 | 1.91 to 9.57 |
| Cc1ccc(S(=O)(=O)c2n[nH]n3c2nc(=O)c2ccc(N4CC5(CC(O)C5)C4)cc23)c(C)c1 [Compound 20, 3-(2,4-dimethylbenzenesulfonyl)-8-{6-hydroxy-2-azaspiro[3.3]heptan-2-yl}-1H,5H-[1,2,3]triazolo[1,5-a]quinazolin-5-one] | ++ (ratio ≤ 125) | 21.5 to 107 | < 2.15 |
| Cc1ccc(S(=O)(=O)c2n[nH]n3c2nc(=O)c2ccc(N4CC5(C4)CC(C)(O)C5)cc23)c(C)c1 [Compound 21, 3-(2,4-dimethylbenzenesulfonyl)-8-{6-hydroxy-6-methyl-2-azaspiro[3.3]heptan-2-yl}-1H,5H-[1,2,3]triazolo[1,5-a]quinazolin-5-one] | ++ (ratio ≤ 125) | 20.9 to 104 | < 2.09 |
| Cc1ccc(S(=O)(=O)c2nnn3c2[nH]c(=O)c2ccc(N4CCN(C)CC4)cc23)c(C)c1 [Compound 22, 3-(2,4-dimethylbenzenesulfonyl)-8-(4-methylpiperazin-1-yl)-4H,5H-[1,2,3]triazolo[1,5-a]quinazolin-5-one] | +++ (ratio ≤ 25) | 22.1 to 110 | < 2.21 |
| Cc1ccc(S(=O)(=O)c2nnn3c2[nH]c(=O)c2ccc(N4C[C@@H](C)N[C@@H](C)C4)cc23)c(C)c1 [Compound 24, 3-(2,4-dimethylbenzenesulfonyl)-8-[(3R,5S)-3,5-dimethylpiperazin-1-yl]-4H,5H-[1,2,3]triazolo[1,5-a]quinazolin-5-one] | +++ (ratio ≤ 25) | 21.4 to 107 | 2.14 to 10.7 |
| Cc1ccc(S(=O)(=O)c2nnn3c2[nH]c(=O)c2ccc(N4C[C@@H](C)N(C)[C@@H](C)C4)cc23)c(C)c1 [Compound 25, rac-3-(2,4-dimethylbenzenesulfonyl)-8-[(3R,5S)-3,4,5-trimethylpiperazin-1-yl]-4H,5H-[1,2,3]triazolo[1,5-a]quinazolin-5-one] | +++ (ratio ≤ 25) | < 20.8 | < 2.08 |
| Cc1ccc(S(=O)(=O)c2nnn3c2[nH]c(=O)c2ccc(N4CC(C)NC(C)C4)cc23)c(C)c1 (stereo not drawn) [Compound 26, 3-(2,4-dimethylbenzenesulfonyl)-8-(3,5-dimethylpiperazin-1-yl)-4H,5H-[1,2,3]triazolo[1,5-a]quinazolin-5-one] | +++ (ratio ≤ 25) | 21.4 to 107 | 2.14 to 10.7 |
| Cc1ccc(S(=O)(=O)c2nnn3c2[nH]c(=O)c2ccc(N4CC(C)N(C)C(C)C4)cc23)c(C)c1 (stereo not drawn) [Compound 27, 3-(2,4-dimethylbenzenesulfonyl)-8-(3,4,5-trimethylpiperazin-1-yl)-4H,5H-[1,2,3]triazolo[1,5-a]quinazolin-5-one] | +++ (ratio ≤ 25) | 20.8 to 104 | < 2.08 |
| Cc1ccc(S(=O)(=O)c2nnn3c2[nH]c(=O)c2ccc(N4CCN(C)C(C)(C)C4)cc23)c(C)c1 [Compound 29, 3-(2,4-dimethylbenzenesulfonyl)-8-(3,3,4-trimethylpiperazin-1-yl)-4H,5H-[1,2,3]triazolo[1,5-a]quinazolin-5-one] | ++ (ratio ≤ 125) | 20.8 to 104 | 2.08 to 10.4 |
| Cc1ccc(S(=O)(=O)c2nnn3c2[nH]c(=O)c2ccc(N4CCN5CCOCC5C4)cc23)c(C)c1 (stereo not drawn) [Compound 30, 3-(2,4-dimethylbenzenesulfonyl)-8-{octahydropyrazino[2,1-c][1,4]oxazin-8-yl}-4H,5H-[1,2,3]triazolo[1,5-a]quinazolin-5-one] | +++ (ratio ≤ 25) | 20.2 to 101 | 2.02 to 10.1 |
| CNC1CCN(c2ccc3c(=O)[nH]c4c(S(=O)(=O)c5ccc(C)cc5C)nnn4c3c2)CC1 [Compound 31, 3-(2,4-dimethylbenzenesulfonyl)-8-[4-(methylamino)piperidin-1-yl]-4H,5H-[1,2,3]triazolo[1,5-a]quinazolin-5-one] | +++ (ratio ≤ 25) | 21.4 to 107 | < 2.14 |
| Cc1ccc(S(=O)(=O)c2nnn3c2[nH]c(=O)c2ccc(N4CCC(N(C)C)CC4)cc23)c(C)c1 [Compound 32, 8-[4-(dimethylamino)piperidin-1-yl]-3-(2,4-dimethylbenzenesulfonyl)-4H,5H-[1,2,3]triazolo[1,5-a]quinazolin-5-one] | +++ (ratio ≤ 25) | 20.8 to 104 | 2.08 to 10.4 |
| Cc1ccc(S(=O)(=O)c2nnn3c2[nH]c(=O)c2ccc(N4CCC(N)CC4)cc23)c(C)c1 [Compound 33, 8-(4-aminopiperidin-1-yl)-3-(2,4-dimethylbenzenesulfonyl)-4H,5H-[1,2,3]triazolo[1,5-a]quinazolin-5-one] | +++ (ratio ≤ 25) | < 22.1 | < 2.21 |
| CNC1CCN(c2ccc3c(=O)[nH]c4c(S(=O)(=O)c5ccc(C)cc5C)nnn4c3c2)C1 (stereo not drawn) [Compound 34, 3-(2,4-dimethylbenzenesulfonyl)-8-[3-(methylamino)pyrrolidin-1-yl]-4H,5H-[1,2,3]triazolo[1,5-a]quinazolin-5-one] | ++ (ratio ≤ 125) | 22.1 to 110 | < 2.21 |
| Cc1ccc(S(=O)(=O)c2nnn3c2[nH]c(=O)c2ccc(N4CC[C@@H](N)C4)cc23)c(C)c1 [Compound 35, 8-[(3R)-3-aminopyrrolidin-1-yl]-3-(2,4-dimethylbenzenesulfonyl)-4H,5H-[1,2,3]triazolo[1,5-a]quinazolin-5-one] | +++ (ratio ≤ 25) | 22.8 to 114 | < 2.28 |
| Cc1ccc(S(=O)(=O)c2nnn3c2[nH]c(=O)c2ccc(N4CCN5CCCC5C4)cc23)c(C)c1 (stereo not drawn) [Compound 36, 3-(2,4-dimethylbenzenesulfonyl)-8-{octahydropyrrolo[1,2-a]pyrazin-2-yl}-4H,5H-[1,2,3]triazolo[1,5-a]quinazolin-5-one] | +++ (ratio ≤ 25) | 20.9 to 104 | < 2.09 |
| Cc1ccc(S(=O)(=O)c2nnn3c2[nH]c(=O)c2ccc(N4CCN5CCC[C@H]5C4)cc23)c(C)c1 [Compound 37, 8-[(8aS)-octahydropyrrolo[1,2-a]pyrazin-2-yl]-3-(2,4-dimethylbenzenesulfonyl)-4H,5H-[1,2,3]triazolo[1,5-a]quinazolin-5-one] | +++ (ratio ≤ 25) | 20.9 to 104 | 2.09 to 10.4 |
| Cc1ccc(S(=O)(=O)c2nnn3c2[nH]c(=O)c2ccc(N4CCN5CCC[C@@H]5C4)cc23)c(C)c1 [Compound 38, 8-[(8aR)-octahydropyrrolo[1,2-a]pyrazin-2-yl]-3-(2,4-dimethylbenzenesulfonyl)-4H,5H-[1,2,3]triazolo[1,5-a]quinazolin-5-one] | +++ (ratio ≤ 25) | 20.9 to 104 | 2.09 to 10.4 |
| Cc1ccc(S(=O)(=O)c2nnn3c2[nH]c(=O)c2ccc(N4CCC5C(CCN5C)C4)cc23)c(C)c1 (stereo not drawn) [Compound 39, 3-(2,4-dimethylbenzenesulfonyl)-8-{1-methyl-octahydro-1H-pyrrolo[3,2-c]pyridin-5-yl}-4H,5H-[1,2,3]triazolo[1,5-a]quinazolin-5-one] | +++ (ratio ≤ 25) | 20.3 to 102 | < 2.03 |
| Cc1ccc(S(=O)(=O)c2nnn3c2[nH]c(=O)c2ccc(N4C[C@H]5CNC[C@H]5C4)cc23)c(C)c1 [Compound 40, 8-[(3aR,6aS)-octahydropyrrolo[3,4-c]pyrrol-2-yl]-3-(2,4-dimethylbenzenesulfonyl)-4H,5H-[1,2,3]triazolo[1,5-a]quinazolin-5-one] | +++ (ratio ≤ 25) | 21.5 to 108 | 2.15 to 10.8 |
| Cc1ccc(S(=O)(=O)c2nnn3c2[nH]c(=O)c2ccc(N4CCN(C(C)(C)C)CC4)cc23)c(C)c1 [Compound 41, 8-(4-tert-butylpiperazin-1-yl)-3-(2,4-dimethylbenzenesulfonyl)-4H,5H-[1,2,3]triazolo[1,5-a]quinazolin-5-one] | +++ (ratio ≤ 25) | 20.2 to 101 | 2.02 to 10.1 |
| COCCN1CCN(c2ccc3c(=O)[nH]c4c(S(=O)(=O)c5ccc(C)cc5C)nnn4c3c2)CC1 [Compound 42, 3-(2,4-dimethylbenzenesulfonyl)-8-[4-(2-methoxyethyl)piperazin-1-yl]-4H,5H-[1,2,3]triazolo[1,5-a]quinazolin-5-one] | +++ (ratio ≤ 25) | 20.1 to 101 | 2.01 to 10.1 |
| Cc1ccc(S(=O)(=O)c2nnn3c2[nH]c(=O)c2ccc(N4CCN(CCO)CC4)cc23)c(C)c1 [Compound 43, 3-(2,4-dimethylbenzenesulfonyl)-8-[4-(2-hydroxyethyl)piperazin-1-yl]-4H,5H-[1,2,3]triazolo[1,5-a]quinazolin-5-one] | ++ (ratio ≤ 125) | 20.7 to 104 | < 2.07 |
| Cc1ccc(S(=O)(=O)c2nnn3c2[nH]c(=O)c2ccc(N4CCN(C(C)CO)CC4)cc23)c(C)c1 (stereo not drawn) [Compound 44, 3-(2,4-dimethylbenzenesulfonyl)-8-[4-(1-hydroxypropan-2-yl)piperazin-1-yl]-4H,5H-[1,2,3]triazolo[1,5-a]quinazolin-5-one] | ++ (ratio ≤ 125) | 20.1 to 101 | < 2.01 |
